Results reported in US20100298141A1, “SUBSTITUTED PYRIDINE N-OXIDE HERBICIDES” (E. I. DU PONT DE NEMOURS AND COMPANY, priority 2007, published 2010).

Columns and labels:
Assay in all cases: Test F preemergence test
[1] = system: naked crabgrass; type: in vivo, Digitaria nuda; conditions: scale 0 to 100
Source text: (§1) Seeds of plant species selected from bermudagrass (Cynodon dactylon), Surinam grass (Brachiaria decumbens), large crabgrass (Digitaria sanguinalis), green foxtail (Setaria viridis), goosegrass (Eleusine indica), johnsongrass (Sorghum halepense), kochia (Kochia scoparia), pitted morningglory (Ipomoea lacunosa), purple nutsedge (Cyperus rotundus), common ragweed (Ambrosia elation), mustard (Brassica nigra), guineagrass (Panicum maximum), […] (Paspalum dilatatum), barnyardgrass (Echinochloa crus-galli), southern sandbur (Cenchrus echinatus), common sowthistle (Sonchus oleraceous), prickly […] spinosa), Italian ryegrass (Lolium multiflorum), common purslane (Portulaca oleracea), broadleaf signalgrass (Brachiaria platyphylla), common groundsel (Senecio vulgaris), common chickweed (Stellaria media), Virginia dayflower (Commelina virginica), annual bluegrass (Poa annua), naked crabgrass (Digitaria nuda), […] cochinchinensis), quackgrass (Elytrigia repens), Canada horseweed (Conyza canadensis), field bindweed (Convolvulus arvensis), […] (Bidens bipinnata), common mallow (Malva sylvestris), Russian thistle (Salsola kali), and sugarcane (Saccharum officinarum) were planted and treated preemergence with test chemicals formulated in a non-phytotoxic solvent mixture which included a surfactant. At a different time, sugarcane was treated with postemergence applications of some of the test chemicals formulated in the same manner. Plants were approximately 3- to 4-leaf stage for the postemergence treatments. Treated plants and controls were maintained in a greenhouse for 14 to 21 days, after which time all species were compared to controls and visually evaluated. […] A dash (-) response means no test result.

[2] = system: common purslane; type: in vivo, Portulaca oleracea; conditions: scale 0 to 100
Source text: as §1

[3] = system: mustard; type: in vivo, Brassica nigra; conditions: scale 0 to 100
Source text: as §1

[4] = system: southern sandbur; type: in vivo, Cenchrus echinatus; conditions: scale 0 to 100; for Sandbur plant response rating: 125 g ai/ha, preemergence; for Plant response rating, Sandbur: Preemergence
Source text: as §1

[5] = system: barnyardgrass; type: in vivo, Echinochloa crus-galli
Source text: as §1

[6] = system: green foxtail; type: in vivo, Setaria viridis; conditions: scale 0 to 100
Source text: as §1

[7] = system: field bindweed; type: in vivo, Convolvulus arvensis; conditions: scale 0 to 100
Source text: as §1

[8] = system: common ragweed; type: in vivo, Ambrosia elation; conditions: scale 0 to 100; for Ragweed plant response rating: 125 g ai/ha
Source text: as §1

[9] = system: prickly sida; type: in vivo, Sida spinosa; conditions: scale 0 to 100
Source text: as §1

[10] = system: quackgrass; type: in vivo, Elytrigia repens; conditions: scale 0 to 100
Source text: as §1

[11] = system: Surinam grass; type: in vivo, Brachiaria decumbens; conditions: scale 0 to 100; for Surinam Grass plant response rating: 125 g ai/ha
Source text: as §1

[12] = system: large crabgrass; type: in vivo, Digitaria sanguinalis; conditions: scale 0 to 100
Source text: as §1

[13] = system: bermudagrass; type: in vivo, Cynodon dactylon; conditions: scale 0 to 100
Source text: as §1

[14] = system: guineagrass; type: in vivo, Panicum maximum; conditions: scale 0 to 100
Source text: as §1

[15] = system: annual bluegrass; type: in vivo, Poa annua; conditions: scale 0 to 100
Source text: as §1

[16] = system: Italian ryegrass; type: in vivo, Lolium multiflorum; conditions: scale 0 to 100; for Ryegrass, Italian plant response rating: 125 g ai/ha
Source text: as §1

[17] = 16 g ai/ha, preemergence, scale 0 to 100 (0 no effect, 100 complete control)
[18] = 125 g ai/ha, preemergence, scale 0 to 100
[19] = Preemergence, 31 g ai/ha, scale 0 to 100

Cn1nc(C(F)(F)C(F)(F)F)c(C[S+]([O-])c2cccc[n+]2[O-])c1OCC(F)(F)F (stereo not drawn) [Compound 79]
40: Plant response rating, Crabgrass, Naked ([1]; Preemergence, 31 g ai/ha) | Plant response rating, Purslane ([2]; Preemergence, 31 g ai/ha)
35: Plant response rating, Sandbur ([4]; 31 g ai/ha) | Plant response rating, Quackgrass ([10]; Preemergence, 31 g ai/ha)
90: Foxtail, Green plant response rating ([6]; 62 g ai/ha, Preemergence) | Bluegrass plant response rating ([15]; 62 g ai/ha, Preemergence)
10: Plant response rating, Bermudagrass ([13]; 16 g ai/ha, preemergence)
0: Plant response rating, Crabgrass, Naked ([1]; 16 g ai/ha, preemergence) | Plant response rating, Prickly Sida ([9]; 16 g ai/ha, preemergence) | Plant response rating, Quackgrass ([10]; 16 g ai/ha, preemergence) | Plant response rating, Crabgrass, Large ([12]; 16 g ai/ha, preemergence) | Plant response rating, Guineagrass ([14]; 16 g ai/ha, preemergence) | Plant response rating, Bluegrass ([15]; 16 g ai/ha, preemergence) | Plant response rating, Bluegrass ([15]; Preemergence, 31 g ai/ha) | Plant response rating, Ryegrass, Italian ([16]; 16 g ai/ha, preemergence)
100: Crabgrass, Naked plant response rating ([1]; 62 g ai/ha, Preemergence) | Crabgrass, Naked plant response rating ([1]; 125 g ai/ha, preemergence) | Purslane plant response rating ([2]; 125 g ai/ha, preemergence) | Plant response rating, Black Mustard ([3]; 16 g ai/ha, preemergence) | Black Mustard plant response rating ([3]; 62 g ai/ha, Preemergence) | Black Mustard plant response rating ([3]; 125 g ai/ha, preemergence) | Plant response rating, Black Mustard ([3]; Preemergence, 31 g ai/ha) | Barnyardgrass plant response rating ([5]; 62 g ai/ha, Preemergence, scale 0 to 100) | Barnyardgrass plant response rating [5, 18] | Foxtail, Green plant response rating ([6]; 125 g ai/ha, preemergence) | Ragweed plant response rating ([8]; preemergence) | Plant response rating, Ragweed ([8]; Preemergence, 62 g ai/ha) | Plant response rating, Ragweed ([8]; Preemergence, 31 g ai/ha) | Prickly Sida plant response rating ([9]; 62 g ai/ha, Preemergence) | Prickly Sida plant response rating ([9]; 125 g ai/ha, preemergence) | Surinam Grass plant response rating ([11]; preemergence) | Plant response rating, Surinam Grass ([11]; Preemergence, 62 g ai/ha) | Crabgrass, Large plant response rating ([12]; 125 g ai/ha, preemergence) | Bermudagrass plant response rating ([13]; 62 g ai/ha, Preemergence) | Bermudagrass plant response rating ([13]; 125 g ai/ha, preemergence) | Guineagrass plant response rating ([14]; 62 g ai/ha, Preemergence) | Guineagrass plant response rating ([14]; 125 g ai/ha, preemergence) | Bluegrass plant response rating ([15]; 125 g ai/ha, preemergence) | Ryegrass, Italian plant response rating ([16]; preemergence) | Plant response rating, Ryegrass, Italian ([16]; Preemergence, 62 g ai/ha)
95: Sandbur plant response rating [4] | Plant response rating, Sandbur ([4]; 62 g ai/ha) | Field Bindweed plant response rating ([7]; 125 g ai/ha, preemergence) | Plant response rating, Ragweed ([8]; 16 g ai/ha, preemergence) | Quackgrass plant response rating ([10]; 125 g ai/ha, preemergence) | Plant response rating, Guineagrass ([14]; Preemergence, 31 g ai/ha)
70: Plant response rating, Field Bindweed ([7]; Preemergence, 31 g ai/ha)
20: Plant response rating, Barnyardgrass [5, 17] | Plant response rating, Foxtail, Green ([6]; 16 g ai/ha, preemergence) | Plant response rating, Prickly Sida ([9]; Preemergence, 31 g ai/ha) | Plant response rating, Crabgrass, Large ([12]; Preemergence, 31 g ai/ha)
30: Plant response rating, Purslane ([2]; 16 g ai/ha, preemergence) | Plant response rating, Surinam Grass ([11]; Preemergence, 31 g ai/ha)
80: Plant response rating, Barnyardgrass [5, 19] | Field Bindweed plant response rating ([7]; 62 g ai/ha, Preemergence) | Quackgrass plant response rating ([10]; 62 g ai/ha, Preemergence) | Crabgrass, Large plant response rating ([12]; 62 g ai/ha, Preemergence)
65: Plant response rating, Bermudagrass ([13]; Preemergence, 31 g ai/ha) | Plant response rating, Ryegrass, Italian ([16]; Preemergence, 31 g ai/ha)
60: Purslane plant response rating ([2]; 62 g ai/ha, Preemergence) | Plant response rating, Foxtail, Green ([6]; Preemergence, 31 g ai/ha) | Plant response rating, Field Bindweed ([7]; 16 g ai/ha, preemergence)

CC(Oc1c(CS(=O)(=O)c2cccc[n+]2[O-])c(C(F)(F)F)nn1C)C(F)(F)F (stereo not drawn) [Compound 82]
80: Plant response rating, Barnyardgrass ([5]; Preemergence, 62 g ai/ha, scale 0 to 100) | Plant response rating, Bermudagrass ([13]; Preemergence, 31 g ai/ha)
15: Plant response rating, Prickly Sida ([9]; Preemergence, 62 g ai/ha)
75: Prickly Sida plant response rating ([9]; 125 g ai/ha, preemergence) | Plant response rating, Ryegrass, Italian ([16]; Preemergence, 62 g ai/ha) | Plant response rating, Ryegrass, Italian ([16]; Preemergence, 31 g ai/ha)
70: Plant response rating, Barnyardgrass [5, 19] | Plant response rating, Quackgrass ([10]; 16 g ai/ha, preemergence) | Plant response rating, Quackgrass ([10]; Preemergence, 31 g ai/ha) | Plant response rating, Guineagrass ([14]; 16 g ai/ha, preemergence) | Plant response rating, Guineagrass ([14]; Preemergence, 31 g ai/ha) | Plant response rating, Bluegrass ([15]; Preemergence, 62 g ai/ha)
98: Plant response rating, Crabgrass, Naked ([1]; Preemergence, 31 g ai/ha)
35: Plant response rating, Crabgrass, Naked ([1]; 16 g ai/ha, preemergence) | Purslane plant response rating ([2]; 125 g ai/ha, preemergence) | Plant response rating, Ryegrass, Italian ([16]; 16 g ai/ha, preemergence)
60: Plant response rating, Sandbur ([4]; 62 g ai/ha) | Plant response rating, Sandbur ([4]; 31 g ai/ha) | Plant response rating, Bluegrass ([15]; Preemergence, 31 g ai/ha)
0: Plant response rating, Purslane ([2]; 16 g ai/ha, preemergence) | Plant response rating, Black Mustard ([3]; 16 g ai/ha, preemergence) | Plant response rating, Black Mustard ([3]; Preemergence, 31 g ai/ha) | Plant response rating, Field Bindweed ([7]; 16 g ai/ha, preemergence) | Field Bindweed plant response rating ([7]; 125 g ai/ha, preemergence) | Plant response rating, Field Bindweed ([7]; Preemergence, 62 g ai/ha) | Plant response rating, Field Bindweed ([7]; Preemergence, 31 g ai/ha) | Plant response rating, Ragweed ([8]; 16 g ai/ha, preemergence) | Ragweed plant response rating ([8]; preemergence) | Plant response rating, Ragweed ([8]; Preemergence, 31 g ai/ha) | Plant response rating, Prickly Sida ([9]; 16 g ai/ha, preemergence) | Plant response rating, Prickly Sida ([9]; Preemergence, 31 g ai/ha) | Plant response rating, Surinam Grass ([11]; 16 g ai/ha, preemergence) | Plant response rating, Crabgrass, Large ([12]; 16 g ai/ha, preemergence) | Plant response rating, Bermudagrass ([13]; 16 g ai/ha, preemergence) | Plant response rating, Bluegrass ([15]; 16 g ai/ha, preemergence)
95: Sandbur plant response rating [4] | Foxtail, Green plant response rating ([6]; 125 g ai/ha, preemergence) | Plant response rating, Foxtail, Green ([6]; Preemergence, 62 g ai/ha) | Plant response rating, Foxtail, Green ([6]; Preemergence, 31 g ai/ha) | Plant response rating, Quackgrass ([10]; Preemergence, 62 g ai/ha) | Plant response rating, Guineagrass ([14]; Preemergence, 62 g ai/ha)
90: Plant response rating, Surinam Grass ([11]; Preemergence, 62 g ai/ha) | Plant response rating, Crabgrass, Large ([12]; Preemergence, 62 g ai/ha) | Plant response rating, Bermudagrass ([13]; Preemergence, 62 g ai/ha)
50: Plant response rating, Black Mustard ([3]; Preemergence, 62 g ai/ha) | Plant response rating, Barnyardgrass [5, 17] | Plant response rating, Crabgrass, Large ([12]; Preemergence, 31 g ai/ha)
100: Crabgrass, Naked plant response rating ([1]; 125 g ai/ha, preemergence) | Plant response rating, Crabgrass, Naked ([1]; Preemergence, 62 g ai/ha) | Black Mustard plant response rating ([3]; 125 g ai/ha, preemergence) | Barnyardgrass plant response rating [5, 18] | Quackgrass plant response rating ([10]; 125 g ai/ha, preemergence) | Surinam Grass plant response rating ([11]; preemergence) | Crabgrass, Large plant response rating ([12]; 125 g ai/ha, preemergence) | Bermudagrass plant response rating ([13]; 125 g ai/ha, preemergence) | Guineagrass plant response rating ([14]; 125 g ai/ha, preemergence) | Bluegrass plant response rating ([15]; 125 g ai/ha, preemergence) | Ryegrass, Italian plant response rating ([16]; preemergence)
30: Plant response rating, Purslane ([2]; Preemergence, 62 g ai/ha) | Plant response rating, Foxtail, Green ([6]; 16 g ai/ha, preemergence) | Plant response rating, Surinam Grass ([11]; Preemergence, 31 g ai/ha)
